# Legend:
# plasma glucose [1] = test: Activity on plasma glucose after repeated oral administration, fasted rat (1); type: in vivo; details: for Plasma glucose 3 hours after the last of 5 oral medications: 5 × p.o., *p < 0.05, ***p < 0.001; for Plasma glucose 3 hours after the last medication: ***p < 0.001
# Experimental: (§1) The preparations containing the test compound were administered to rats and mice as a suspension in 5% gun arabic (10 ml/kg) through a stomach probe. Dogs received the preparations orally in gelatin capsules. The blank values were ascertained from animals which received only the vehicle or a blank capsule. The medication was administered daily at 9:00 a.m. and 3:00 p.m.
# (§2) The plasma glucose (Tables 1 and 3) was determined according to the hexokinase method. The plasma was obtained from heparinized blood after decapitating the rats (1) or by puncturing the vena saphena (2), or there was used a filtrate, made protein-free with perchloric acid, of blood removed from the tip of the tail (3), (4), (5). The glucose in the urine was determined directly. In the case of (1), (2) and (4), the feed was withdrawn with the first of five medications.
# plasma glucose [2] = test: Activity on plasma glucose after repeated oral administration, fasted dog (2); type: in vivo; details: 5 administrations
# Experimental: as §1, §2
# blood glucose [3] = test: Activity on blood glucose after repeated oral administration, diabetic rat (3), streptozotocin; type: in vivo; details: 132 mg/kg p.o., 7 administrations
# Experimental: as §1, §2
# (§3) In the case of (3), female rats received 70 mg/kg of streptozotocin subcutaneously 2 weeks before the test. In the case of (3) and (5), quantitatively controlled feed supply existed.
# blood glucose [4] = test: Activity on blood glucose after repeated oral administration, obese-hyperglycemic mouse (4), feed withdrawn; type: in vivo; details: 294 mg/kg p.o., 5 administrations
# Experimental: as §1, §2
# blood glucose [5] = test: Activity on blood glucose after repeated oral administration, obese-hyperglycemic mouse (5), quantitatively controlled feed supply; type: in vivo; details: 11 administrations
# Experimental: as §1, §2, §3
# [6] = Toxicity, 10 day test in mice; details: mouse, in vivo
# [7] = Toxicity, 10 day test in rats; details: rat, in vivo
# [8] = 88 mg/kg p.o., 5 administrations
smiles,measurement,setting,value
"CN(C)c1ccc(C2OC(C)(C)N=C2c2ccccc2)cc1 (centres unmarked) [A, 5-[p-(dimethylamino)phenyl]-2,2-dimethyl-4-phenyl-3-oxazoline]",Plasma glucose 3 hours after the last of 5 oral medications,plasma glucose [1]; 300 μmol/kg,78 % of the blank values
same,Plasma glucose 3 hours after the last of 5 oral medications,plasma glucose [1]; 1000 μmol/kg,58 % of the blank values
same,Plasma glucose 0 hours after the last medication,"plasma glucose [1]; 88 mg/kg p.o., 5 administrations, 0 h",76 % of blank values
same,Plasma glucose 1 hour after the last medication,plasma glucose [1]; [8],76 % of blank values
same,Plasma glucose 3 hours after the last medication,plasma glucose [1]; [8],78 % of blank values
same,Plasma glucose 1 hour after the last medication,"plasma glucose [1]; 294 mg/kg p.o., 5 administrations, **p < 0.01",57 % of blank values
same,Plasma glucose 3 hours after the last medication,"plasma glucose [1]; 294 mg/kg p.o., 5 administrations",58 % of blank values
same,Plasma glucose 0 hours after the last medication,"plasma glucose [2]; 29 mg/kg p.o., **p < 0.01",82 % of blank values
same,Plasma glucose 1 hour after the last medication,"plasma glucose [2]; 29 mg/kg p.o., *p < 0.05",75 % of blank values
same,Plasma glucose 3 hours after the last medication,"plasma glucose [2]; 29 mg/kg p.o., ***p < 0.001",77 % of blank values
same,Plasma glucose 6 hours after the last medication,"plasma glucose [2]; 29 mg/kg p.o., **p < 0.01",74 % of blank values
same,Plasma glucose 24 hours after the last medication,plasma glucose [2]; 29 mg/kg p.o.,84 % of blank values
same,Plasma glucose 0 hours after the last medication,"plasma glucose [2]; 88 mg/kg p.o., **p < 0.01",77 % of blank values
same,Plasma glucose 1 hour after the last medication,plasma glucose [2]; 88 mg/kg p.o.,75 % of blank values
same,Plasma glucose 3 hours after the last medication,"plasma glucose [2]; 88 mg/kg p.o., *p < 0.05",78 % of blank values
same,Plasma glucose 6 hours after the last medication,"plasma glucose [2]; 88 mg/kg p.o., *p < 0.05",76 % of blank values
same,Plasma glucose 24 hours after the last medication,"plasma glucose [2]; 88 mg/kg p.o., *p < 0.05",74 % of blank values
same,Blood glucose 0 hours after the last medication,blood glucose [3]; 0 h,101 % of blank values
same,Blood glucose 1 hour after the last medication,blood glucose [3]; 1 h,101 % of blank values
same,Blood glucose 3 hours after the last medication,blood glucose [3]; 3 h,90 % of blank values
same,Blood glucose 6 hours after the last medication,"blood glucose [3]; 6 h, *p < 0.05",86 % of blank values
same,Blood glucose 0 hours after the last medication,"blood glucose [4]; 0 h, *p < 0.05",63 % of blank values
same,Blood glucose 1 hour after the last medication,blood glucose [4]; 1 h,74 % of blank values
same,Blood glucose 3 hours after the last medication,blood glucose [4]; 3 h,71 % of blank values
same,Blood glucose 6 hours after the last medication,"blood glucose [4]; 6 h, ***p < 0.001",45 % of blank values
same,Blood glucose 0 hours after the last medication,blood glucose [5]; 44 mg/kg p.o.,83 % of blank values
same,Blood glucose 1 hour after the last medication,blood glucose [5]; 44 mg/kg p.o.,77 % of blank values
same,Blood glucose 3 hours after the last medication,blood glucose [5]; 44 mg/kg p.o.,84 % of blank values
same,Blood glucose 0 hours after the last medication,"blood glucose [5]; 132 mg/kg p.o., **p < 0.01",66 % of blank values
same,Blood glucose 1 hour after the last medication,"blood glucose [5]; 132 mg/kg p.o., *p < 0.05",61 % of blank values
same,Blood glucose 3 hours after the last medication,"blood glucose [5]; 132 mg/kg p.o., ***p < 0.001",55 % of blank values
same,LD50 at 240 h,[6],220 mg/kg
same,LD50 at 240 h,[7],970 mg/kg
"CCN(CC)c1ccc(C2OC(C)(C)N=C2c2ccccc2)cc1 (centres unmarked) [B, 5-[p-(diethylamino)-phenyl]-2,2-dimethyl-4-phenyl-3-oxazoline]",Plasma glucose 3 hours after the last of 5 oral medications,plasma glucose [1]; 300 μmol/kg,91 % of the blank values
same,Plasma glucose 3 hours after the last of 5 oral medications,plasma glucose [1]; 1000 μmol/kg,77 % of the blank values
"CN(C=O)c1ccc(C2OC(C)(C)N=C2c2ccccc2)cc1 (centres unmarked) [C, 4'-(2,2-dimethyl-4-phenyl-3-oxazolin-5-yl)-N-methylformanilide]",Plasma glucose 3 hours after the last of 5 oral medications,plasma glucose [1]; 300 μmol/kg,87 % of the blank values
"CNc1ccc(C2OC(C)(C)N=C2c2ccccc2)cc1 (centres unmarked) [D, 5-[p-(methylamino)phenyl]-2,2-dimethyl-4-phenyl-3-oxazoline]",Plasma glucose 3 hours after the last of 5 oral medications,plasma glucose [1]; 300 μmol/kg,86 % of the blank values
same,Plasma glucose 3 hours after the last of 5 oral medications,plasma glucose [1]; 1000 μmol/kg,81 % of the blank values
